Results reported in the kinase profiling compilation of Christmann-Franck et al. (2016).

Experiments:
Experiment in all cases: KINOMEscan competition binding
IRAK3 (human) = IRAK3 (human) (UniProt Q9Y616); conditions: compound 10.0 µM
TNK1 (human) = TNK1 (human) (UniProt Q13470); conditions: compound 10.0 µM
CSNK1D (human) = CSNK1D (human) (UniProt P48730); conditions: compound 10.0 µM
SRMS (human) = SRMS (human) (UniProt Q9H3Y6); conditions: compound 10.0 µM
GSK3A (human) = GSK3A (human) (UniProt P49840); conditions: compound 10.0 µM
MAP3K9 (human) = MAP3K9 (human) (UniProt P80192); conditions: compound 10.0 µM
PTK2 (human) = PTK2 (human) (UniProt Q05397); conditions: compound 10.0 µM
MAP2K6 (human) = MAP2K6 (human) (UniProt P52564); conditions: compound 10.0 µM
Chain of MAP2K6 (human) (P52564 whole entry, looked up): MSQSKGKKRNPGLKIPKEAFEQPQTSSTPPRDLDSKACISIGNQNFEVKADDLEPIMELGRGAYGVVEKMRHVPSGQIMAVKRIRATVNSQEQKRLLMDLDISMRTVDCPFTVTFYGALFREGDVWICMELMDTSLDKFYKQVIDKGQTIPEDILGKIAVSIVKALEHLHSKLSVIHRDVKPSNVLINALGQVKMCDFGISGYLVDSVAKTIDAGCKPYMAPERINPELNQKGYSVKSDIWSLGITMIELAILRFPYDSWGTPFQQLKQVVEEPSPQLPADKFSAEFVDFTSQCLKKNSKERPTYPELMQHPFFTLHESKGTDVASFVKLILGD

PIP5K1A (human) = PIP5K1A (human) (UniProt Q99755); conditions: compound 10.0 µM
Chain of PIP5K1A (human) (Q99755 whole entry, looked up): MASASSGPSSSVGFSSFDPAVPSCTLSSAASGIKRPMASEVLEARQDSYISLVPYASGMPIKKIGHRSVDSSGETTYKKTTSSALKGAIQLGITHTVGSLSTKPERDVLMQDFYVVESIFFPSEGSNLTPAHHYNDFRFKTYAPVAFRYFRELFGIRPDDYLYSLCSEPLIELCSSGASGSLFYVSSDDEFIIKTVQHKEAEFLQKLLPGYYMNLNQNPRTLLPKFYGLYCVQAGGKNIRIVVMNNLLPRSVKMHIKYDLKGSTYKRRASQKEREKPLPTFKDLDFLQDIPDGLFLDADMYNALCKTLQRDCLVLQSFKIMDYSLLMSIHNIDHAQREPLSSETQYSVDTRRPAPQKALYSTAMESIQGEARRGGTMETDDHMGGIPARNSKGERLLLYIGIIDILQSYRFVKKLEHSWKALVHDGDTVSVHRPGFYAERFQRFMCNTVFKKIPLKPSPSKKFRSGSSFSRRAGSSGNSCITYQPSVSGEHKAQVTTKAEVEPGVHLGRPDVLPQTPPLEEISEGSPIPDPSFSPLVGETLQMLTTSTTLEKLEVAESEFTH

RAF1 (human) = RAF1 (human) (UniProt P04049); conditions: compound 10.0 µM
MYLK2 (human) = MYLK2 (human) (UniProt Q9H1R3); conditions: compound 10.0 µM
STK17B (human) = STK17B (human) (UniProt O94768); conditions: compound 10.0 µM
RIOK2 (human) = RIOK2 (human) (UniProt Q9BVS4); conditions: compound 10.0 µM
PLK3 (human) = PLK3 (human) (UniProt Q9H4B4); conditions: compound 10.0 µM
ACVR2A (human) = ACVR2A (human) (UniProt P27037); conditions: compound 10.0 µM
MERTK (human) = MERTK (human) (UniProt Q12866); conditions: compound 10.0 µM
Chain of MERTK (human) (Q12866 whole entry, looked up): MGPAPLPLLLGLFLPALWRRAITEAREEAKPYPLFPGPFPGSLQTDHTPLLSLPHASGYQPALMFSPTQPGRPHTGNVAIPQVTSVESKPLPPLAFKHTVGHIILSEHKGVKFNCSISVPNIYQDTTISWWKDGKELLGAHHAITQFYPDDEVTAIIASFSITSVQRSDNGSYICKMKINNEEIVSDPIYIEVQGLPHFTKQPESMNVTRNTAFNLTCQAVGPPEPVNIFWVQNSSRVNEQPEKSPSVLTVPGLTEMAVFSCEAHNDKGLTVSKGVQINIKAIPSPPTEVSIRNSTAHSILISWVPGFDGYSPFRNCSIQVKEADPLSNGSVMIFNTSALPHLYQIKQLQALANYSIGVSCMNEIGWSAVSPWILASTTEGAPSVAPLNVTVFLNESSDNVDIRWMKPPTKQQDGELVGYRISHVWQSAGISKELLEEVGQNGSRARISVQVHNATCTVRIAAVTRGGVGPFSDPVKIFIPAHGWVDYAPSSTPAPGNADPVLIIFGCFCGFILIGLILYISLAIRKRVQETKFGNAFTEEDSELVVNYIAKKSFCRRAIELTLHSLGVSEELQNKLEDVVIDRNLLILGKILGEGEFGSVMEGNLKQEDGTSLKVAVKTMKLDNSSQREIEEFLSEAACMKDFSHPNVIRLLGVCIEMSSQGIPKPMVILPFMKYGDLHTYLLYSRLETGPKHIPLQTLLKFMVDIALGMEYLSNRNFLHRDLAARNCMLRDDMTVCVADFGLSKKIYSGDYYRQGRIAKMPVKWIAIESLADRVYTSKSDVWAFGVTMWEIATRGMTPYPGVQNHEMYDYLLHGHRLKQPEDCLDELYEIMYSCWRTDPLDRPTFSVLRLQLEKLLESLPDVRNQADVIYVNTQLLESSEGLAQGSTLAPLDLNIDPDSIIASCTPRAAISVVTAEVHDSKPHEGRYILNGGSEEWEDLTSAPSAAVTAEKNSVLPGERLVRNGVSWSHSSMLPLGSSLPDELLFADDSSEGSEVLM

EPHB1 (human) = EPHB1 (human) (UniProt P54762); conditions: compound 10.0 µM
STK4 (human) = STK4 (human) (UniProt Q13043); conditions: compound 10.0 µM
TLK2 (human) = TLK2 (human) (UniProt Q86UE8); conditions: compound 10.0 µM
ERBB2 (human) = ERBB2 (human) (UniProt P04626); conditions: compound 10.0 µM
CSNK1G1 (human) = CSNK1G1 (human) (UniProt Q9HCP0); conditions: compound 10.0 µM
RPS6KA4 KD2 (human) = RPS6KA4 KD2 (human) (UniProt O75676); conditions: compound 10.0 µM
Chain of RPS6KA4 KD2 (human) (O75676 whole entry, looked up): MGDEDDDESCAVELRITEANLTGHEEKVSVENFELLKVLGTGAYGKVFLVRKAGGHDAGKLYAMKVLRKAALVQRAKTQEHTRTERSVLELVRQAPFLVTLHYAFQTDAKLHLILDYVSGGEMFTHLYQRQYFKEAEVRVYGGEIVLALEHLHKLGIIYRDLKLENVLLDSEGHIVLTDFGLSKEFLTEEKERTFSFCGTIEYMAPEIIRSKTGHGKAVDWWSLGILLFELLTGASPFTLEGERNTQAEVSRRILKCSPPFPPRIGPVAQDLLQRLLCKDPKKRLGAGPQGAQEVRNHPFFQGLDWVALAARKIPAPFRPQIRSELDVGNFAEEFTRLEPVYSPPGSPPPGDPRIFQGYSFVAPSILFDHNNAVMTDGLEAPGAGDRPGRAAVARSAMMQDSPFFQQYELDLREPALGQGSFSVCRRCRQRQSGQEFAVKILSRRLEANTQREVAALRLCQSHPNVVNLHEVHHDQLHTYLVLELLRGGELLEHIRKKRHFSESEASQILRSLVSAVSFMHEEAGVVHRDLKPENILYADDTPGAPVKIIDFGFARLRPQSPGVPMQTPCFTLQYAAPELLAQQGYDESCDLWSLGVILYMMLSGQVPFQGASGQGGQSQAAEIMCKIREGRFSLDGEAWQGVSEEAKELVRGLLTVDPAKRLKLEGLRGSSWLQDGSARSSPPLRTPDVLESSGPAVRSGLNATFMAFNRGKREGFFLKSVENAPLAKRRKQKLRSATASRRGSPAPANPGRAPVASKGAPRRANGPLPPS

MAP2K1 (human) = MAP2K1 (human) (UniProt Q02750); conditions: compound 10.0 µM
PRKCH (human) = PRKCH (human) (UniProt P24723); conditions: compound 10.0 µM
[1] = test system: EGFR (human), P00533 [G719C]; conditions: compound 10.0 µM
PRKCE (human) = PRKCE (human) (UniProt Q02156); conditions: compound 10.0 µM
Chain of PRKCE (human) (Q02156 whole entry, looked up): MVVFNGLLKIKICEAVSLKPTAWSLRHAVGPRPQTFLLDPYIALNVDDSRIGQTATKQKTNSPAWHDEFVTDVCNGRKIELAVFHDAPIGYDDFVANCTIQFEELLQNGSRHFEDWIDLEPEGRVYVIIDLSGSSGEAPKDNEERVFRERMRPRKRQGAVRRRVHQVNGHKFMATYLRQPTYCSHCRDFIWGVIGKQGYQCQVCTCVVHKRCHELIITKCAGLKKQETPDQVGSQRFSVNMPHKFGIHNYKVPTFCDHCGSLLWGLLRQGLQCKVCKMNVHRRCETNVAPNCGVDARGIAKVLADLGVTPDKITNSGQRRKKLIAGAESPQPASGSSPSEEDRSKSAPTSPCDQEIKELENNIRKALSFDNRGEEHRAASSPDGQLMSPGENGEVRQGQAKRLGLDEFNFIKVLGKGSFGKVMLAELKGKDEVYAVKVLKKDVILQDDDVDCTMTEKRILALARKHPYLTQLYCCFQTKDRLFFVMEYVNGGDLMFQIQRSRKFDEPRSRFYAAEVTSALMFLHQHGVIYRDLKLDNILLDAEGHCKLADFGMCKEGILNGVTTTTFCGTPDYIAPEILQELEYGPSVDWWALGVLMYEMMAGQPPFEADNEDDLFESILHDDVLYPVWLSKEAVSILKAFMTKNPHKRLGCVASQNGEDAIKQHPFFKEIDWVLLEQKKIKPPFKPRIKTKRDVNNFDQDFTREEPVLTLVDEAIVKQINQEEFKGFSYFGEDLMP

MAPK1 (human) = MAPK1 (human) (UniProt P28482); conditions: for kinase still bound, per cent of control: compound 10.0 µM
Chain of MAPK1 (human) (P28482 whole entry, looked up): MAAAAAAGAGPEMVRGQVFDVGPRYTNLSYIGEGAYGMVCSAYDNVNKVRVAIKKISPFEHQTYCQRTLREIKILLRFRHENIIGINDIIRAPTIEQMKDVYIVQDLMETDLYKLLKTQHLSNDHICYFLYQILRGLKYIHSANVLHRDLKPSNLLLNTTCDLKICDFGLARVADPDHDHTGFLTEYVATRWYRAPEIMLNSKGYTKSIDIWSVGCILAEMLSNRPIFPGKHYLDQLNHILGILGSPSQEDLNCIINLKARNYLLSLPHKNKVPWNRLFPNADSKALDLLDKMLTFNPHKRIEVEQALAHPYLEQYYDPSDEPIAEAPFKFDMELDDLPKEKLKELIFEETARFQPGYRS

STK38L (human) = STK38L (human) (UniProt Q9Y2H1); conditions: compound 10.0 µM
GAK (human) = GAK (human) (UniProt O14976); conditions: compound 10.0 µM
ULK1 (human) = ULK1 (human) (UniProt O75385); conditions: compound 10.0 µM
PAK6 (human) = PAK6 (human) (UniProt Q9NQU5); conditions: compound 10.0 µM
CIT (human) = CIT (human) (UniProt O14578); conditions: compound 10.0 µM
PRKX (human) = PRKX (human) (UniProt P51817); conditions: compound 10.0 µM
Chain of PRKX (human) (P51817 whole entry, looked up): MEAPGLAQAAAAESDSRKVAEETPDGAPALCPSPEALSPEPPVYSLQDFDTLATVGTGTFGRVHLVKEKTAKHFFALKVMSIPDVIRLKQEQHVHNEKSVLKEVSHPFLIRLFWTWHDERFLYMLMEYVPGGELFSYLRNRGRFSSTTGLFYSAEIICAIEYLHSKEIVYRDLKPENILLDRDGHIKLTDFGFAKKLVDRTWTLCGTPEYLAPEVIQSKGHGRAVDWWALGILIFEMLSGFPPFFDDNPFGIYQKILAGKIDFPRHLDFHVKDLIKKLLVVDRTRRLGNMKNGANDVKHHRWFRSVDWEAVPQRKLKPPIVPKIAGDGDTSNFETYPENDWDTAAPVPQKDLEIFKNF

[2] = target: JAK2 JH1 catalytic (human) (UniProt O60674); conditions: compound 10.0 µM
PRKACA (human) = PRKACA (human) (UniProt P17612); conditions: compound 10.0 µM
RPS6KA2 KD2 (human) = RPS6KA2 KD2 (human) (UniProt Q15349); conditions: compound 10.0 µM
CaMK1 (human) = CaMK1 (human) (UniProt Q14012); conditions: compound 10.0 µM
STK32C (human) = STK32C (human) (UniProt Q86UX6); conditions: compound 10.0 µM
PIK3CG (human) = PIK3CG (human) (UniProt P48736); conditions: compound 10.0 µM
CDK19 (human) = CDK19 (human) (UniProt Q9BWU1); conditions: compound 10.0 µM
AXL (human) = AXL (human) (UniProt P30530); conditions: compound 10.0 µM
NEK7 (human) = NEK7 (human) (UniProt Q8TDX7); conditions: compound 10.0 µM
Chain of NEK7 (human) (Q8TDX7 whole entry, looked up): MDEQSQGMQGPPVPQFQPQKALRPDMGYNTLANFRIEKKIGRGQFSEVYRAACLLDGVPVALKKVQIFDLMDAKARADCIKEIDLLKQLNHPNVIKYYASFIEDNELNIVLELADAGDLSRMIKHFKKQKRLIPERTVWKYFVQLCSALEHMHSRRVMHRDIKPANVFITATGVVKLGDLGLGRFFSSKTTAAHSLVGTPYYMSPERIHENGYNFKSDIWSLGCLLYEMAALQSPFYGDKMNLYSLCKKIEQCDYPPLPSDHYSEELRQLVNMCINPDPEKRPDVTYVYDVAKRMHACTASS

Chain of IRAK3 (human) (Q9Y616 whole entry, looked up): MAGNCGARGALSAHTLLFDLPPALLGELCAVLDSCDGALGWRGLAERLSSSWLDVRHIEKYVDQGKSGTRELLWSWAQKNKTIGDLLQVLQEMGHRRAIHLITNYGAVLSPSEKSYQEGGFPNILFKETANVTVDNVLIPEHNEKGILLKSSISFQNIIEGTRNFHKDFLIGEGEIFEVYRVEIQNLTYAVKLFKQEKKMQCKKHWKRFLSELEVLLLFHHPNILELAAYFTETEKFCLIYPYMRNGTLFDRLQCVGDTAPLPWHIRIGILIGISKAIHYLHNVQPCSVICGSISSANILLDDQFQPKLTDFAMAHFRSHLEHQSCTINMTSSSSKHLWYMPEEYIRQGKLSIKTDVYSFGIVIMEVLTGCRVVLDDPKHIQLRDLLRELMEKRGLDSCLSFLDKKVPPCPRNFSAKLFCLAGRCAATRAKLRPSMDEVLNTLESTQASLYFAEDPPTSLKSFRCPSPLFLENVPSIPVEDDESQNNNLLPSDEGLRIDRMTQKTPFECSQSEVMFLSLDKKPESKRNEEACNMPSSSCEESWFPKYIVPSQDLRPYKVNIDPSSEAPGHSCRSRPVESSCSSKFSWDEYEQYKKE

CCN1CCN(Cc2ccc(NC(=O)c3ccc(C)c(/C=C/c4cnc(Nc5cc(N6CCNCC6)nc(C)n5)cn4)c3)cc2C(F)(F)F)CC1
kinase still bound, per cent of control (IRAK3 (human)): 87%
kinase still bound, per cent of control (TNK1 (human)): 13%
kinase still bound, per cent of control (CSNK1D (human)): 95%
kinase still bound, per cent of control (SRMS (human)): 8.2%
kinase still bound, per cent of control (GSK3A (human)): 81%
kinase still bound, per cent of control (MAP3K9 (human)): 21%
kinase still bound, per cent of control (PTK2 (human)): 100%
kinase still bound, per cent of control (MAP2K6 (human)): 100%
kinase still bound, per cent of control (PIP5K1A (human)): 86%
kinase still bound, per cent of control (RAF1 (human)): 43%
kinase still bound, per cent of control (MYLK2 (human)): 3.8%
kinase still bound, per cent of control (STK17B (human)): 2%
kinase still bound, per cent of control (RIOK2 (human)): 85%
kinase still bound, per cent of control (PLK3 (human)): 83%
kinase still bound, per cent of control (ACVR2A (human)): 100%
kinase still bound, per cent of control (MERTK (human)): 31%
kinase still bound, per cent of control (EPHB1 (human)): 16%
kinase still bound, per cent of control (STK4 (human)): 22%
kinase still bound, per cent of control (TLK2 (human)): 100%
kinase still bound, per cent of control (ERBB2 (human)): 0%
kinase still bound, per cent of control (CSNK1G1 (human)): 100%
kinase still bound, per cent of control (RPS6KA4 KD2 (human)): 43%
kinase still bound, per cent of control (MAP2K1 (human)): 35%
kinase still bound, per cent of control (PRKCH (human)): 100%
kinase still bound, per cent of control [1]: 1.8%
kinase still bound, per cent of control (PRKCE (human)): 68%
kinase still bound, per cent of control (MAPK1 (human)): 100%
kinase still bound, per cent of control (STK38L (human)): 84%
kinase still bound, per cent of control (GAK (human)): 51%
kinase still bound, per cent of control (ULK1 (human)): 83%
kinase still bound, per cent of control (PAK6 (human)): 91%
kinase still bound, per cent of control (CIT (human)): 0.2%
kinase still bound, per cent of control (PRKX (human)): 100%
kinase still bound, per cent of control [2]: 29%
kinase still bound, per cent of control (PRKACA (human)): 26%
kinase still bound, per cent of control (RPS6KA2 KD2 (human)): 43%
kinase still bound, per cent of control (CaMK1 (human)): 90%
kinase still bound, per cent of control (STK32C (human)): 96%
kinase still bound, per cent of control (PIK3CG (human)): 100%
kinase still bound, per cent of control (CDK19 (human)): 3.5%
kinase still bound, per cent of control (AXL (human)): 26%
kinase still bound, per cent of control (NEK7 (human)): 100%

CCOc1cc(N2CCC(N3CCCCC3)CC2)ccc1Nc1nc(Nc2ccccc2S(=O)(=O)C(C)C)c2cn[nH]c2n1
kinase still bound, per cent of control (IRAK3 (human)): 100%
kinase still bound, per cent of control (TNK1 (human)): 2.4%
kinase still bound, per cent of control (CSNK1D (human)): 92%
kinase still bound, per cent of control (SRMS (human)): 27%
kinase still bound, per cent of control (GSK3A (human)): 100%
kinase still bound, per cent of control (MAP3K9 (human)): 94%
kinase still bound, per cent of control (PTK2 (human)): 0.2%
kinase still bound, per cent of control (MAP2K6 (human)): 100%
kinase still bound, per cent of control (PIP5K1A (human)): 39%
kinase still bound, per cent of control (RAF1 (human)): 100%
kinase still bound, per cent of control (MYLK2 (human)): 100%
kinase still bound, per cent of control (STK17B (human)): 100%
kinase still bound, per cent of control (RIOK2 (human)): 76%
kinase still bound, per cent of control (PLK3 (human)): 98%
kinase still bound, per cent of control (ACVR2A (human)): 100%
kinase still bound, per cent of control (MERTK (human)): 100%
kinase still bound, per cent of control (EPHB1 (human)): 100%
kinase still bound, per cent of control (STK4 (human)): 100%
kinase still bound, per cent of control (TLK2 (human)): 100%
kinase still bound, per cent of control (ERBB2 (human)): 37%
kinase still bound, per cent of control (CSNK1G1 (human)): 71%
kinase still bound, per cent of control (RPS6KA4 KD2 (human)): 97%
kinase still bound, per cent of control (MAP2K1 (human)): 100%
kinase still bound, per cent of control (PRKCH (human)): 100%
kinase still bound, per cent of control [1]: 81%
kinase still bound, per cent of control (PRKCE (human)): 62%
IC50 (MAPK1 (human)): 6.5 mM
kinase still bound, per cent of control (MAPK1 (human)): 0.7%
kinase still bound, per cent of control (STK38L (human)): 100%
kinase still bound, per cent of control (GAK (human)): 6%
kinase still bound, per cent of control (ULK1 (human)): 1.8%
kinase still bound, per cent of control (PAK6 (human)): 100%
kinase still bound, per cent of control (CIT (human)): 100%
kinase still bound, per cent of control (PRKX (human)): 100%
kinase still bound, per cent of control [2]: 50%
kinase still bound, per cent of control (PRKACA (human)): 100%
kinase still bound, per cent of control (RPS6KA2 KD2 (human)): 7.4%
kinase still bound, per cent of control (CaMK1 (human)): 4.6%
kinase still bound, per cent of control (STK32C (human)): 88%
kinase still bound, per cent of control (PIK3CG (human)): 100%
kinase still bound, per cent of control (CDK19 (human)): 100%
kinase still bound, per cent of control (AXL (human)): 100%
kinase still bound, per cent of control (NEK7 (human)): 100%
